Data reported in PubChem BioAssay (NCI).
Where “and” joins values, the source holds several entries; their conditions need not be identical. Identical values can stand only once.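 Compound exposure: 48 hours, 5 concentrations, 96-well plates. GI50 marks 50% less growth. TGI is the concentration that stops growth completely.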

What was measured:
Test in all cases: DTP human tumour cell line panel, 48 h
A498 renal = tested on: A498 renal
BT-549 breast = tested on: BT-549 breast
EKVX NSCLC = tested on: EKVX NSCLC
HCC-2998 colon = tested on: HCC-2998 colon
MDA-MB-231 breast = tested on: MDA-MB-231 breast
NCI-H23 lung = tested on: NCI-H23 lung
NCI-H460 lung = tested on: NCI-H460 lung
RPMI-8226 leukemia = tested on: RPMI-8226 leukemia
SF-539 CNS = tested on: SF-539 CNS
UACC-62 melanoma = tested on: UACC-62 melanoma

Structure (SMILES)	GI50 (A498 renal)	TGI (A498 renal)	GI50 (BT-549 breast)	TGI (BT-549 breast)	GI50 (EKVX NSCLC)	TGI (EKVX NSCLC)	GI50 (HCC-2998 colon)	TGI (HCC-2998 colon)	GI50 (MDA-MB-231 breast)	TGI (MDA-MB-231 breast)	GI50 (NCI-H23 lung)	TGI (NCI-H23 lung)	GI50 (NCI-H460 lung)	TGI (NCI-H460 lung)	GI50 (RPMI-8226 leukemia)	TGI (RPMI-8226 leukemia)	GI50 (SF-539 CNS)	TGI (SF-539 CNS)	GI50 (UACC-62 melanoma)	TGI (UACC-62 melanoma)
C=C(C)[C@@H]1CC[C@]2(C(N)=O)CC[C@]3(C)[C@H](CC[C@@H]4[C@@]5(C)CC[C@H](O)C(C)(C)[C@@H]5CC[C@]43C)[C@@H]12	12.2 µM	76.5 µM	3.99 µM	19.7 µM	2.96 µM	18.2 µM	3.96 µM	12.9 µM	1.97 µM	4.6 µM	2.26 µM	5.21 µM	2.12 µM	4.84 µM	3.53 µM	24.9 µM	1.78 µM	3.4 µM	4.2 µM	23.1 µM
C[C@@H](N)C1CCC(C(=O)Nc2ccncc2)CC1 (some centres undefined)	> 100 µM	> 100 µM	> 88.4 µM	> 100 µM	15 µM	> 100 µM	> 100 µM	> 100 µM	> 100 µM	> 100 µM	> 100 µM	> 100 µM	> 100 µM	> 100 µM	> 100 µM	> 100 µM	> 100 µM	> 100 µM	> 100 µM	> 100 µM
Cc1ncc(C(=O)Nc2ccc(CN3CCN(C)CC3)c(C(F)(F)F)c2)cc1C#Cc1cnc(N)c2cnccc12	0.0511 µM	0.3 µM	0.841 µM	10.7 µM	0.358 µM	12.9 µM	0.133 µM	15.2 µM	0.0289 µM	0.165 µM	0.0873 µM	10.5 µM	0.0647 µM	1.54 µM	0.249 µM	2.13 µM	0.193 µM	1.29 µM	0.019 µM	0.105 µM
C[C@H]1CC[C@H]([C@@H](C)[C@H]2[C@@H](O)C[C@H]3[C@@H]4CC[C@H]5C[C@@H](O)CC[C@]5(C)[C@H]4CC[C@]23C)NC1	–	32.1 µM	–	32.5 µM	–	32.5 µM	–	35.5 µM	–	47.9 µM	–	32.5 µM	–	39.7 µM	–	30.7 µM	–	53.7 µM	–	28.5 µM
CCNCCC1(CC)C(=O)NC(=O)NC1=O	–	> 100 µM	–	> 100 µM	–	> 100 µM	> 100 µM	> 100 µM	–	> 100 µM	–	> 100 µM	–	> 100 µM	–	> 100 µM	–	> 100 µM	–	> 100 µM
CCN(CC)CC.CCOc1ccc(NC(=O)N=C=[N-])cc1.[CH-]1CCCCC1.[CH-]1CCCCC1.[CH-]1CCCCC1.[Cl-].[Sn+4]	0.0423 µM	0.0959 µM	0.149 µM	0.292 µM	0.043 µM	0.143 µM	0.0255 µM	0.0669 µM	0.103 µM	0.25 µM	0.0312 µM	0.0882 µM	0.0279 µM	0.575 µM	0.0199 µM	0.064 µM	0.0234 µM	0.052 µM	0.0228 µM	0.0559 µM
Cc1cccc(-c2nn3c(c2-c2ccnc4ccc(C(N)=O)cc24)CCC3)n1	97.5 µM	> 100 µM	> 100 µM	> 100 µM	> 100 µM	> 100 µM	> 100 µM	> 100 µM	> 100 µM	> 100 µM	> 100 µM	> 100 µM	> 100 µM	> 100 µM	> 100 µM	> 100 µM	> 100 µM	> 100 µM	78.8 µM	> 100 µM
COC(=O)C(Cc1cnc[nH]1)NC(=O)CNC(=O)CCCn1c(=O)c2c3ccccc3n(C)c2n2nnc(-c3ccccc3)c12 (centres undefined)	> 100 µM	> 100 µM	> 100 µM	> 100 µM	> 100 µM	> 100 µM	> 100 µM	> 100 µM	> 100 µM	> 100 µM	> 100 µM	> 100 µM	> 100 µM	> 100 µM	> 100 µM	> 100 µM	> 100 µM	> 100 µM	> 100 µM	> 100 µM
CC1=CC(=O)CC(C)(C)C1(O)/C=C/C(C)=C/C(=O)O (centres undefined)	–	> 100 µM	–	> 100 µM	–	> 100 µM	–	> 100 µM	–	> 100 µM	–	> 100 µM	–	> 100 µM	–	> 100 µM	–	> 100 µM	–	> 100 µM
COc1c2ccoc2cc2oc(=O)ccc12	–	> 100 µM	–	> 100 µM	–	> 100 µM	–	> 100 µM	–	> 100 µM	–	> 100 µM	–	> 100 µM	–	> 100 µM	–	> 100 µM	–	> 100 µM
Fc1ccc(-c2nn3c(CNc4ccccc4)nnc3s2)cc1	37 µM	> 100 µM	39.1 µM	> 100 µM	27.8 µM	> 100 µM	0.585 µM	25 µM	27.9 µM	> 100 µM	27.2 µM	> 100 µM	52.3 µM	> 100 µM	6.99 µM	> 100 µM	33.6 µM	> 100 µM	18.4 µM	53.7 µM
COC(=O)[C@H]1[C@@H](O)[C@@]2(O)c3c(OC)cc(O[C@@H]4O[C@@H]([C@H](O)CO)CO[C@H]4OC)cc3O[C@@]2(c2ccc(OC)cc2)[C@@H]1c1ccccc1	0.00537 µM	0.0141 µM	0.00434 µM	0.0322 µM	0.00659 µM	0.105 µM	0.00297 µM	0.0164 µM	0.00386 µM	0.0237 µM	0.00441 µM	0.0422 µM	0.004 µM	0.0695 µM	0.00314 µM	0.0113 µM	0.00187 µM	0.00686 µM	0.00694 µM	0.0322 µM
O=C(c1ccc(OCCN2CCCCC2)cc1)c1c(-c2ccc(O)cc2)sc2cc(O)ccc12	11.6 µM	26.2 µM	7.8 µM and 12 µM	21.5 µM and 27.9 µM	9.34 µM and 12.8 µM	25.7 µM and 33.9 µM	6.37 µM and 19.1 µM	19.2 µM and 36.8 µM	10.4 µM and 9.02 µM	23.2 µM and 23.6 µM	10.8 µM and 18.5 µM	27 µM and 45.2 µM	4.29 µM and 7.96 µM	17.1 µM and 25.9 µM	5.54 µM and 2.41 µM	77 µM and > 23.1 µM	12.1 µM and 11 µM	27.2 µM and 25.7 µM	12 µM and 13.7 µM	25.8 µM and 27.2 µM
O=C1/C=C/[C@@H](O)[C@@H]2C[C@@H](O)C[C@H]2/C=C/CCC[C@H](CCc2ccc(C(F)(F)F)cc2)O1	0.0533 µM	0.277 µM	0.355 µM	10.7 µM	0.252 µM	6.67 µM	0.238 µM	3.87 µM	0.185 µM	0.368 µM	0.236 µM	1.57 µM	0.388 µM	> 55.4 µM	0.282 µM	0.806 µM	0.522 µM	> 100 µM	0.169 µM	17.3 µM
O=Nc1ccc(O)c2ccccc12	15.1 µM	28.6 µM	1.93 µM	3.35 µM	1.88 µM	4.43 µM	3.31 µM	11.3 µM	2.93 µM	20.4 µM	1.45 µM	4.17 µM	3.66 µM	13.5 µM	2.4 µM	7.58 µM	2.11 µM	4.05 µM	1.69 µM	3.37 µM
NCCCCCCCCn1c2c(c3ccccc3c1=O)C(=O)c1ccccc1-2	3.48 µM	15.8 µM	5.18 µM	23.3 µM	17.4 µM	44.7 µM	1.89 µM	3.75 µM	2.12 µM	5.73 µM	4.57 µM	21.6 µM	3.66 µM	24.8 µM	4.02 µM	23.7 µM	2.84 µM	8.62 µM	3.76 µM	14.1 µM
CN1CCC(CNc2ccc3ncc(-c4cccc(OC(F)(F)F)c4)n3n2)CC1	0.869 µM and 1.58 µM	3.28 µM and 7.47 µM	2.45 µM and 4.35 µM	10.9 µM and > 10 µM	3.45 µM and 9.78 µM	14.5 µM and > 10 µM	1.57 µM and 1.45 µM	3.15 µM and 3.32 µM	1.62 µM and 1.26 µM	3.65 µM and 2.77 µM	2.47 µM and 3.96 µM	9.48 µM and > 10 µM	2.16 µM and 2.94 µM	5.68 µM and > 10 µM	2.41 µM and 1.91 µM	7.18 µM and 5.36 µM	1.68 µM and 1.51 µM	3.47 µM and 3.11 µM	1.76 µM	3.66 µM
COC(=O)[C@H]1C(=O)[C@@]2(C)[C@H]([C@H](OC(=O)c3ccccc3)[C@]3(O)C[C@H](OC(=O)[C@H](O)[C@@H](NC(=O)c4ccc(F)cc4)c4ccccc4)C(C)=C1C3(C)C)[C@]1(OC(C)=O)CO[C@@H]1C[C@@H]2O	0.0315 µM	–	0.011 µM	0.833 µM	0.0181 µM	> 25 µM	0.00909 µM	> 9.55 µM	0.0414 µM	> 14.4 µM	0.0202 µM	> 25 µM	0.00739 µM	3.64 µM	0.00484 µM	0.271 µM	0.00749 µM	0.0753 µM	0.0122 µM	> 25 µM
COC(=O)[C@@]1(Cc2ccccc2)[C@H]2c3cc(C(=O)N4CCCC4)n(Cc4ccc(OC)c(OC)c4)c3C[C@H]2CN1C(=O)c1ccccc1	10.4 µM	19.2 µM	8.46 µM	16.1 µM	9.84 µM	21.2 µM	8.86 µM	15.8 µM	8.17 µM	21.4 µM	11.6 µM	36.1 µM	9.12 µM	18.9 µM	10.8 µM	23.5 µM	9.73 µM	18.1 µM	7.49 µM	15.8 µM
C[C@H](N)C(=O)N[C@@H]1[C@H]2C(=C(O)C[C@@H](O)[C@@H]2O)C(=O)O[C@]1(C)C(Cl)Cl	–	2.27 µM and 1.56 µM	0.315 µM	2.57 µM and 1.53 µM	0.472 µM	4.66 µM and 2.23 µM	0.224 µM	0.745 µM and 1.16 µM	–	1.14 µM	0.226 µM	1.04 µM and 1.1 µM	0.146 µM	1.4 µM and 1.2 µM	0.261 µM and 0.161 µM	2.57 µM and 2.35 µM	0.326 µM	2.37 µM and 0.88 µM	0.27 µM	1.66 µM and 1.1 µM
O=C(CSc1nc2ccccc2nc1-c1ccccc1)Nc1ccc(Cl)cc1	31.4 µM	> 100 µM	33.5 µM	> 100 µM	49.5 µM	> 100 µM	46.4 µM	> 100 µM	30.5 µM	> 100 µM	30.5 µM	> 100 µM	11.8 µM	36.8 µM	92.3 µM	> 100 µM	16.3 µM	36.6 µM	20.7 µM	> 100 µM
COc1cc(-c2nc(NC(C)=O)sc2-c2ccnc(NCCNS(=O)(=O)c3ccccc3)n2)ccc1Cl	2.96 µM	8.97 µM	3.1 µM	> 100 µM	5.25 µM	> 100 µM	20.9 µM	> 100 µM	3.81 µM	> 100 µM	5 µM	> 100 µM	3.08 µM	10.8 µM	3.77 µM	> 100 µM	2.86 µM	8.48 µM	2.61 µM	> 100 µM
COc1ccccc1-c1cc(/C=C2\C(=O)Nc3ncc(Br)cc32)cc(Br)c1O	3.73 µM	19.5 µM	14.2 µM	> 25 µM	11.2 µM	> 25 µM	> 25 µM	> 25 µM	8.52 µM	> 25 µM	10.5 µM	> 25 µM	11.6 µM	> 25 µM	9.59 µM	> 25 µM	> 19.3 µM	> 25 µM	6.91 µM	> 25 µM
COc1ccc(CCN2CCCN3C2=Nc2ccccc2S3(=O)=O)cc1	0.195 µM	3.2 µM	0.923 µM	92.4 µM	18.8 µM	> 100 µM	1.45 µM	> 100 µM	1.68 µM	> 100 µM	0.474 µM	> 100 µM	0.429 µM	44.1 µM	0.563 µM	53.5 µM	0.272 µM	1.04 µM	0.744 µM	> 100 µM
C=CC(=O)N1C/C(=C\c2ccccc2)C(=O)/C(=C/c2ccccc2)C1	–	4.03 µM	–	4.24 µM	–	9.42 µM	–	3.67 µM	–	4.55 µM	–	5.43 µM	–	4.47 µM	0.17 µM	0.871 µM and 1.08 µM	–	3.69 µM	–	3.68 µM
